Results as given in patent publication US10111885B2, “Compositions and therapeutic methods for the treatment of complement-associated diseases” (Resverlogix Corp., priority 2015, dated 2018).
Read-outs that look alike come from different tables or passages of the source.

Key:
C3 mRNA = assay: Complement gene mRNA expression, TaqMan real-time PCR, Huh-7 cells; format: cell-based, human; conditions: Homo sapiens
From the text: (§1) In this example, mRNA levels from cultured cells were quantitated. The assay can be used to determine the effect of compound(s) on regulating mRNA levels, including those compounds in the present invention. Complement genes are expressed at high endogenous levels, but their expression can also be stimulated with various cytokines in inflammatory conditions. Experiments in this example target both basal and inflammatory complement gene expression. Compound mediated changes in gene expression and resulting mRNA levels are presented in Tables 2, 3 and 4 as well as FIGS. 1, 2, 3 and 4 below.
(§2) Huh-7 and HepG2 cells are liver-derived cell lines and are models for what can occur in the liver. Huh-7 cells (JCRB Cell Bank) were introduced to 96-well plates (^˜2.5×10^5 per well) in 100 μL DMEM containing 10% (v/v) FBS, 100 U/mL penicillin, 100 ug/mL streptomycin and 5 ug/mL plasmocin (all reagents from Gibco, except for the former, which was obtained from Invivogen). After 24 h, Huh-7 cells were treated with compounds in the same media formulation used for plating, and supplemented with 0.1% DMSO for the amount of time indicated in tables 2, 3, and 4. For select experiments, 24 h post-plating, cells were treated with cytokines and the compound of interest simultaneously, for a total treatment time of 48 h. Alternatively, 24 h after plating, cells were pre-treated with cytokines for 24 h before adding the compound of interest for 48 h. HepG2 cells (ATCC) were cultured in 96-well plates (^˜2.5×10^5 per well) in MEM containing 10% FBS, 1× non-essential amino acids, 1 mM sodium pyruvate, 2 mM L-glutamine, 100 U/mL penicillin, 100 ug/mL streptomycin and 5 ug/mL plasmocin. Serum amount was reduced to 0.5% for treatments with compound or cytokines. Timing of treatment of HepG2 cells with compounds and cytokines was as described for Huh-7 cells. Primary human hepatocytes (CellzDirect/Life Technologies) were plated in collagen coated 96-well plates at 70 000 cells/well, then overlaid with Matrigel™ as recommended by the supplier. Cells were treated with compounds of interest and/or cytokines for the indicated time points in the recommended media supplemented with 0.1% DMSO and 10% FBS (v/v). Cells were harvested by mRNA Catcher PLUS Kit (Life Technologies) followed by real-time PCR using the RNA UltraSense One-Step qRT-PCR System. The level of the mRNA of interest was measured by TaqMan real-time PCR relative to the endogenous control cyclophilin A in the same sample. Data were acquired using the ViiA-7 Real Time PCR System (Applied Biosystems).
(§3) Downregulation of expression of components of the complement cascade will result in reduced activity of the pathway and thus will constitute a positive result. Tables 2 and 3 list the concentration of compounds at which the level of the indicated mRNA is reduced by 50%, as well as the duration of treatment with compound. Table 4 lists the maximum reduction in the indicated mRNA measured in primary human hepatocytes treated with compounds for up to 72 hours. FIGS. 1, 2, 3 and 4 show effects of compounds on cytokine-induced (i.e. inflammatory) expression of complement genes in Huh-7 cells and HepG2 cells.

C4a/C4b mRNA = assay: as above; format: cell-based, human; conditions: Homo sapiens
From the text: as §1, §2, §3

C5 mRNA = assay: as above; format: cell-based, human; conditions: Homo sapiens; Huh-7, 48 h treatment; read-out: C5 (48 h) mRNA, half maximal inhibitory concentration (IC50)
From the text: as §1, §2, §3

erythrocyte lysis = erythrocyte lysis animal model; cited from earlier work
[1] = test system: ex vivo perfused pig xenografts; conditions: porcine-to-human kidney perfusion animal model; cited from earlier work
[2] = hereditary angioedema; cited from earlier work
[3] = Huh-7, 48 h treatment (Table 3), read-out: mRNA expression in Huh-7 cells: IC50 (uM), C3
[4] = Huh-7, 48 h treatment (Table 3), read-out: mRNA expression in Huh-7 cells: IC50 (uM), C4
[5] = Huh-7, 48 h treatment, read-out: C3 (48 h) mRNA, half maximal inhibitory concentration (IC50)
[6] = Huh-7, 48 h treatment, read-out: C4a/C4b (48 h) mRNA, half maximal inhibitory concentration (IC50)

Row | Molecule | IC50 (C3 mRNA; [3]) [µM] | IC50 (C4a/C4b mRNA; [4]) [µM] | also measured
1 | COc1cc(OC)c2c(=O)[nH]c(-c3cc(C)c(O)c(C)c3)nc2c1 [RVX000206] | 3.6 | 9.3 | –
2 | COc1cc(OC)c2c(=O)[nH]c(-c3ccc(N4CCN(C)CC4)cc3)nc2c1 [RVX000255, 5,7-dimethoxy-2-(4-(4-methylpiperazin-1-yl)phenyl)quinazolin-4(3H)-one] | 20.4 | 17.4 | –
3 | COc1cc(OC)c2c(=O)[nH]c(-c3cc(C)c(OCCN4CCCC4)c(C)c3)nc2c1 [RVX000297] | – | – | IC50 (C3 mRNA; [5]): 4.7 µM; IC50 (C4a/C4b mRNA; [6]): 4.5 µM; IC50 (C5 mRNA): > 10 µM
4 | COc1cc(OC)c2c(=O)[nH]c(-c3cc(C)c(OCC(O)CO)c(C)c3)nc2c1 (stereo not drawn) [RVX000344] | 11.6 | 15.6 | –
5 | COc1cc(OCCN2CCCC2)cc(-c2nc3cc(OC)cc(OC)c3c(=O)[nH]2)c1 [RVX000641] | 12.6 | 9.3 | –
6 | COc1cc(OC)c2c(=O)[nH]c(-c3cc(C)c(OCCN4CCCC4)c(C)c3)nc2n1 [RVX000662] | 29.2 | 21.1 | –
7 | COc1cc(OC)c2c(=O)[nH]c(-c3ccc4[nH]c(CN(C)C)cc4c3)nc2c1 [RVX000668] | 9.5 | 15.6 | –
8 | COc1cc(OC)c2c(=O)[nH]c(-c3cc(C)c(OCCN4CCC(F)(F)C4)c(C)c3)nc2c1 [RVX000843] | 11.1 | > 50 | –
9 | COc1cc(OC)c2c(=O)[nH]c(-c3cc(C)c(OCCNS(C)(=O)=O)c(C)c3)nc2c1 [RVX002093, N-(2-(4-(5,7-dimethoxy-4-oxo-3,4-dihydroquinazolin-2-yl)-2,6-dimethylphenoxy)ethyl)methanesulfonamide] | 18.5 | 17.2 | –
10 | COc1cc(OC)c2c(=O)[nH]c(-c3cc(C)c(OCCNC(C)=O)c(C)c3)nc2c1 [RVX002101] | 11.3 | 22 | –
11 | COc1cc(OC)c2c(=O)[nH]c(-c3cc(C)c(OCCNC(=O)C(C)C)c(C)c3)nc2c1 [RVX002103] | 13.9 | 13.8 | –
12 | COc1cc(OC)c2c(=O)[nH]c(-c3ccc(N4CCN(C(C)C)CC4)cc3)nc2c1 [RVX002109] | – | – | IC50 (C3 mRNA; [5]): 34.8 µM; IC50 (C4a/C4b mRNA; [6]): 62.2 µM; IC50 (C5 mRNA): > 50 µM
13 | COC(=O)NCCOc1c(C)cc(-c2nc3cc(OC)cc(OC)c3c(=O)[nH]2)cc1C [RVX002113] | 5.8 | 7.8 | –
14 | COc1cc(OC)c2c(=O)[nH]c(-c3cc(C)c(OCCNC(C)C)c(C)c3)nc2c1 [RVX002135] | – | – | IC50 (C3 mRNA; [5]): 2.2 µM; IC50 (C4a/C4b mRNA; [6]): 4.3 µM; IC50 (C5 mRNA): 37.9 µM
15 | COc1cc(OC)c2c(=O)[nH]c(-c3ccc(N4CCNCC4)cc3)nc2c1 [RVX002141] | 15.4 | 17.8 | –
16 | CC[C@H](C)[C@H](N)C(=O)N[C@H]1CSSC[C@@H](C(=O)N[C@H](C(N)=O)[C@@H](C)O)NC(=O)[C@H](CCCN=C(N)N)NC(=O)[C@H](Cc2cnc[nH]2)NC(=O)[C@H](Cc2cnc[nH]2)NC(=O)CNC(=O)[C@H](Cc2c[nH]c3ccccc23)NC(=O)[C@H](CC(=O)O)NC(=O)[C@H](CCC(N)=O)NC(=O)[C@H](C(C)C)NC(=O)[C@H](C(C)C)NC1=O [compstatin] | – | – | reduction of hemolysis (erythrocyte lysis): 50%; graft survival [1]: prolonged graft survival
17 | Recombinant human C1INH: recombinant human C1 esterase inhibitor (protein, UniProt P05155 23-500, looked up) Plasma protease C1 inhibitor: NPNATSSSSQDPESLQDRGEGKVATTVISKMLFVEPILEVSSLPTTNSTTNSATKITANTTDEPTTQPTTEPTTQPTIQPTQPTTQLPTDSPTQPTTGSFCPGPVTLCSDLESHSTEAVLGDALVDFSLKLYHAFSAMKKVETNMAFSPFSIASLLTQVLLGAGENTKTNLESILSYPKDFTCVHQALKGFTTKGVTSVSQIFHSPDLAIRDTFVNASRTLYSSSPRVLSNNSDANLELINTWVAKNTNNKISRLLDSLPSDTRLVLLNAIYLSAKWKTTFDPKKTRMEPFHFKNSVIKVPMMNSKKYPVAHFIDQTLKAKVGQLQLSHNLSLVILVPQNLKHRLEDMEQALSPSVFKAIMEKLEMSKFQPTLLTLPRIKVTTSQDMLSIMEKLEFFDFSYDLNLCGLTEDPDLQVSAMQHQTVLELTETGVEAAAASAISVARTLLVFEVQQPFLFVLWDQQHKFPVFMGRVYDPRA | – | – | symptoms of repeat HAE attacks [2]: effective in improving symptoms
